Where two headings read alike, the source gives them in different places.
Key:
HaCaT cells [1] = assay: LDH release in HaCaT cells; type: cell-based; settings: for LDH release versus vehicle control, in words: 2 microM, 37° C., four hours
Source text: (§1) The biological assay methods were as follows: LDH release as described in Muller K, Huang H-S, Wiegrebe W, J. Med. Chem. 39, 3132-3138 (1996); bovine PMNL 5-LO assay as described in Muller K, Gurster D, Piwek S, Wiegrebe W, J. Med. Chem. 36, 4099-4107 (1993); and degradation of 2-deoxy-D-ribose as described in Muller K, Gurster D, Biochem. Pharmacol. 46, 1695-1704 (1993). HaCaT keratinocyte proliferation assay was generally described in Muller K, Leukel P, Zeireis K, Gawlik I, J. Med. Chem 37, 1660-1669 (1994). Specifically, the HaCaT cells were incubated with the test compounds (2 microM) for four hours at 37° C. Extracellular LDH activity was measured using the UV method with pyruvate and NADH and is expressly in mU/ml. Appropriate controls with the vehicle were performed (P<0.01; N=3, SD<10%).
Geisel J.; Mahrle, G. "Lactate dehydrogenase release as an indicator of dithranol-induced membrane injury in cultured human keratinocytes", Arch. Dermatol. Res., 282, 325-329 (1990)). Cytotoxicity against cell cultures by the potent cell growth inhibitors was assessed by the activity of lactate dehydrogenase (LDH) activity release into the culture medium. The release of LDH is commonly used as an indicator of plasma membrane damage.

HaCaT cells [2] = assay: HaCaT keratinocyte proliferation assay; type: cell-based; settings: Homo sapiens
Source text: as §1

5-LO in bovine PMNL = biological target: T1, 5-LO in bovine PMNL (Bos taurus, UniProt F1MQ78); assay: Bovine PMNL 5-lipoxygenase assay (inhibition of 5-HETE and LTB4 biosynthesis); type: cell-based
T1 construct: endogenous in cells; host or cells: polymorphonuclear leukocytes isolated from bovine blood
T1 sequence (F1MQ78 1-674): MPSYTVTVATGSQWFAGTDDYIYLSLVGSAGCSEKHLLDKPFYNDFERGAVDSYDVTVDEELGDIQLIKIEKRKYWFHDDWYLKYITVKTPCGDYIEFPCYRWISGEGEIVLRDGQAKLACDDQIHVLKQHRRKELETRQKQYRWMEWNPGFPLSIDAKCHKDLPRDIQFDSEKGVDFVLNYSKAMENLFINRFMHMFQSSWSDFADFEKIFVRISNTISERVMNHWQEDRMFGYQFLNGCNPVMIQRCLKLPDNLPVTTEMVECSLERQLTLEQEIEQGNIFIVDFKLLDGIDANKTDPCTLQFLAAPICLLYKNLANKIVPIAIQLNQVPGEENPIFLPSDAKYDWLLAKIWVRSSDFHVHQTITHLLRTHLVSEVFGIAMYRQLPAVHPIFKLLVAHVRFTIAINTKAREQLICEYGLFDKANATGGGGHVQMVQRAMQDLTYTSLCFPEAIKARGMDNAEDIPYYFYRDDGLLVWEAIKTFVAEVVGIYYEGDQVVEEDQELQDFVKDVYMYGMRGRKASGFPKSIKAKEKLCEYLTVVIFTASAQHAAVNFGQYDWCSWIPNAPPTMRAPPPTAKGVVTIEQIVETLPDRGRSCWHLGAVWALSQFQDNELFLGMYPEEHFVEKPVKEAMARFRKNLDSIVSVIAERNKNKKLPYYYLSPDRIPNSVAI

[3] = Degradation of 2-deoxy-D-ribose (hydroxyl radical formation)
Procedure: This assay followed generally the procedures of Gutteridge, J. M. C., "Reactivity of Hydroxyl and Hydroxyl-Like Radicals Discriminated by Release of Thiobarbituric Acid-Reactive Material from Deoxy Sugars, Nucleosides and Benzoate", Biochem. J., 224, 761-767 (1984) and of Laughton, M. J. et al., "Antioxidant and Prooxidant Actions of the Plant Phenolics Quercetin, Gossypol and Myricetin", Biochem. Pharmacol., 38, 2859-2865 (1989). The following reagents were added to glass tubes in the order and at the final concentrations stated. 0.3 ml KH2 PO4 -KOH buffer, pH 7.4 (30 mM), 0.2 ml H2 O bidist., 0.2 ml 2-deoxy-D-ribose (2 mM), 0.2 ml FeCl3 .cndot.6 H2 O (0.1 mM), 0.1 ml anthracenone derivative (75 μM). Stock solutions of the compounds were made up fresh before use. Appropriate blanks and controls with the vehicle (acetonitrile) were conducted. The final reaction volumes were standardized to 1.0 ml. The reaction mixtures were incubated for 2 h at 37° C. in a shaking water bath. 1.0 ml of 2.8% (w/v) trichloroacetic acid and 1.0 ml of 1% (w/v in 0.05 N NaOH) 2-thiobarbituric acid (TBA) were added, and the samples were heated at 100° C. for 15 min and then cooled in an ice bath (5 min). Then 2.0 ml of the reaction mixtures were treated with 0.05 ml of 36% (w/v) HCl and 2.0 ml of 1-butanol and the mixtures were vigorously shaken in a vortex mixer (Heidolph) for 15 s. The organic layer was separated by centrifugation at 3000 rpm (15 min) and the absorbance at 532 nm was measured against butanol. […]
The biological assay methods were as follows: LDH release as described in Muller K, Huang H-S, Wiegrebe W, J. Med. Chem. 39, 3132-3138 (1996); bovine PMNL 5-LO assay as described in Muller K, Gurster D, Piwek S, Wiegrebe W, J. Med. Chem. 36, 4099-4107 (1993); and degradation of 2-deoxy-D-ribose as described in Muller K, Gurster D, Biochem. Pharmacol. 46, 1695-1704 (1993). […] Extracellular LDH activity was measured using the UV method with pyruvate and NADH and is expressly in mU/ml. […]

psoriasis = settings: in vivo; cited from earlier work
[4] = Stability at pH 7.4 in phosphate buffer under lipoxygenase assay incubation; type: physicochemical; settings: pH 7.4, phosphate buffer, lipoxygenase assay conditions
Procedure: In connection with confirming the resistance to metabolic degradation of the compounds of the invention, the following procedures will be of interest. C-10-acylated compounds of Tanzer et al., Arch. Pharm., 322, 441-444 (1989) were determined to be stable at pH 7.5 when incubated for glucose-6-phosphate dehydrogenase inhibition assays. […] The compounds of the present invention are stable at pH 7.4 (in phosphate buffer) when incubated for the lipoxygenase assay. […] These procedures are expected to be useful in confirming the metabolic stability of the compounds of the invention.

[5] = Reducing activity toward DPPH; settings: Table I (Addendum); equimolar amount of test compound
Procedure: This assay followed generally the procedures of Blois, M. S., "Antioxidant Determinations by the Use of a Stable Free Radical", Nature, 181, 1199-1200 (1958) and Kato, K. et al., "Studies on Scavengers of Active Oxygen Species. 1. Synthesis and Biological Activity of 2-O-Alkylascorbic Acids", J. Med. Chem., 31, 793-798 (1988). In time studies, 1 ml of test compound solution (10^-4 M) was added to 1 ml of DPPH solution (10^-4 M), each in acetone/PBS (1+1 V/V), and the reduction of DPPH was followed spectrophotometrically at 516 nm. Plots of the reciprocal of DPPH concentrations against time gave straight lines, and the second-orderrate constants were obtained from the slopes and are expressed as mean values (n=3-6). In the cases where DPPH was very fast approximate values are given and expressed as kDPPH >100 or kDPPH >>100M^-1s^-1.
Because a radical scavenging antioxidant reacts rapidly with the stable free radical 2,2-diphenyl-1-picrylhydrazyl (DPPH), Blois, M. S., "Antioxidant Determination by the Use of a Stable Free Radical", Nature, 181, 1199-1200 (1958); Kato, K. et al., "Studies on Scavengers of Active Oxygen Species. I. Synthesis and Biological Activity of 2-O-Alkylascorbic Acids", J. Med. Chem., 31, 793-798 (1988), the reactivities of the new compounds with DPPH were determined by decrease in absorbance at 516 nm.

[6] = pH 7.5; cited from earlier work
skin = settings: topical/therapeutic application; cited from earlier work
[7] = system: LTB4 production in human neutrophils; settings: depending on cell density; cited from earlier work
[8] = system: cultured human keratinocytes; settings: cited from earlier work
[9] = Lipid peroxidation in bovine brain phospholipid liposomes; settings: Table I (Addendum); n = 3 or more; standard errors average 20%; read-out: LPO IC50
Procedure: Phospholipids were prepared essentially as described by Gutteridge, J. M. C., "The Measurement of Malondialdehyde in Peroxidised Ox-Brain Phospholipid Liposomes", Anal. Biochem., 82, 76-82 (1977). Bovine brain, cooled on ice, was freed from blood vessels and washed repeatedly with 0.15M NaCl, pH 7.4. It was cut to pieces and then macerated with an ultra-turrax, passed through a close-meshed sieve, and extracted four times with four times the volume of acetone. The extraction mixture was filtered by suction to remove the acetone, the residue was dried under vacuum, and then repeatedly extracted with petroleum ether (40-60) using twice the volume of the original brain homogenate. The combined extracts were filtered, dried at 45° C., and dissolved in ether (one fifth of the original brain volume). The mixture was treated with five times the volume of acetone, and the resulting precipitate was collected by suction-filtration, dried and stored under N2 at -20° C. in the dark. Bovine brain phospholipids were weighed into glass tubes and shaken in a vortex mixer (Heidolph) in the presence of five small glass beads (.phi. 4 mm) for 1 min. […]
The following reagents were added to glass tubes in the order and at the final concentrations stated. […] The organic layer was separated by centrifugation at 3000 rpm (15 min) and the absorbance at 532 nm was measured against butanol.

[10] = octanol-water; cited from earlier work
[11] = Table V, 2 μM test compound (Example 8)
[12] = Table IV, 2 μM test compound, N = 3, SD < 10%
[13] = Table IV, N = 3, P < 0.01, read-out: AA IC50 (antiproliferative activity)

`CC(CCC(=O)C1c2cccc(O)c2C(=O)c2c(O)cccc21)c1ccccc1` (racemic) [Compound Iw, (R,S)-1,8-dihydroxy-10-(1-oxo-4-phenylpentyl)-9(10H)-anthracenone] gave an LDH release (HaCaT cells [1]; [11]) of 171 mU, an IC50 (HaCaT cells [2]; Table V, footnotes same as in Example 8, read-out: AA IC50 (antiproliferative activity)) of 800 nM and an IC50 (5-LO in bovine PMNL; Table V, bovine PMNL) of 300 nM. The “DD(OH), deoxyribose degradation” value ([3]; Table V, footnotes same as in Example 8) was < 0.3 μmol of malondialdehyde/mmol o.
In the case of `O=C1c2ccccc2Cc2cccc(O)c21` [1-hydroxy-9(10H)-anthracenone], the “antipsoriatic efficacy, in words” value (psoriasis) is given as “effective in the treatment of psoriasis”.
In the case of `O=C1c2c(O)cccc2Cc2cccc(O)c21` [Anthralin, 1,8-dihydroxy-9(10H)-anthracenone], the time to degradation [4] is given as no more than 2 h, the “antipsoriatic efficacy, in words” value (psoriasis) is given as “effective in the treatment of psoriasis” and the kDPPH [5] is given as 24.2 ± 4.2 M⁻¹ s⁻¹. For the same compound, the “stability under G6PD inhibition assay incubation, in words” value [6] was “degraded almost completely”, the “irritation, in words” value (skin) was “non-affected skin surrounding a psoriatic lesion to which anthralin is applied is frequently irritated” and the IC50 [7] was 7000 to 74000 nM. The “LDH release versus vehicle control, in words” value (HaCaT cells [1]) was “significantly exceeded that of the vehicle control”, the LDH release (HaCaT cells [1]; [12]) was 294 mU and the LDH release (HaCaT cells [1]; [11]) was 294 mU. For the same compound, the IC50 (HaCaT cells [2]; [13]) was 700 nM, the “membrane damage, in words” value [8] was “cause membrane damage, but did not directly lead to substantial membrane destruction” and the IC50 [9] was 12000 nM.
With `Cc1ccc(CC(=O)C2c3cccc(O)c3C(=O)c3c(O)cccc32)cc1` [Compound Iv, 1,8-dihydroxy-10-[2-(4-methylphenyl)-1-oxoethyl]-9(10H)-anthracenone] the “LDH release versus vehicle control, in words” value (HaCaT cells [1]) was “not significantly different as compared to vehicle controls”, the LDH release (HaCaT cells [1]; [12]) was 145 mU and the IC50 (HaCaT cells [2]; [13]) was 700 nM. For the same compound, the IC50 (5-LO in bovine PMNL) was 600 nM and the “DD(OH), deoxyribose degradation” value ([3]; Table IV, released by 75 μm test compound (so in the source)) was < 0.3 μmol of malondialdehyde/mmol o.
For `O=C1c2c(O)cccc2C(C(=O)CCCc2ccccc2)c2cccc(O)c21` [Ip, 1,8-Dihydroxy-10-(1-oxo-4-phenylbutyl)-9(10H)-anthracenone], the “effectiveness as inhibitor of lipoxygenase relative to anthralin” value (5-LO in bovine PMNL; compared with anthralin) was roughly 100 times.
Work on `CC(Cc1ccc(O)c(O)c1)C(C)Cc1ccc(O)c(O)c1` (centres unmarked) [Nordihydroguaiaretic acid (NDGA), Nordihydroguaiaretic acid] yielded an IC50 (5-LO in bovine PMNL) of 400 nM.
In the case of `c1ccc2ccccc2c1` [naphthalene], the “log P (known values of calibration compounds)” value [10] is listed as 3.44.
With `CC(=O)Oc1cccc2cc3cccc(OC(C)=O)c3c(OC(C)=O)c12` [triacetoxyanthracene] the “inhibition at 30 µM” value (5-LO in bovine PMNL; at 30 μM, bovine PMNL) was 15%.
